The values that follow come from publication PMC12499404, “Colloidal Interactions in Simulated Intestinal Fluids: Implications for Oral Drug Delivery at the Nanoscale” (Small Science, 2025).

≈ marks a conversion by molar mass, not a printed value.

Details of series [1]: method as in PMID 20507160. The conditions noted are these: cited from earlier work.
Series [2] is described as follows: physchem. The format is physicochemical. The note with it: 37 °C, pH 6.5, fassif, thermodynamic from solid, apparent solubility. As to the method: Excess powder (at least 2‐3 times the expected equilibrium solubility) was added to 10 mL preheated simulated intestinal fluids, and the dissolution was monitored until a plateau was reached. […] This is in line with previously reported observations.^[ [26], [27] ^] […] This is likely because of the neutral and more lipophilic properties of felodipine (Table 1), where it is expected to see a larger benefit of the solubilization properties of the formed micelles.
The dissolution and apparent solubilities of two poorly water‐soluble drugs, indomethacin and felodipine, were determined in the simulated intestinal fluids using a MicroDISS Profiler (pION Inc Ltd, East Sussex, UK). In each experiment (n ≥ 3), excess powder (at least 2‐3 times) compared to the expected solubility value was added to 10 mL simulated intestinal fluid. The experiments were performed at 37 °C using a stirring rate of 150 rpm, while the samples were scanned by individual UV probes every 10–30 s. […] The concentrations were determined based on the area under the curve in second derivative spectra evaluated over a range of wavelengths. […] The hydrodynamic size of the simulated intestinal fluids and drugs dissolved in the different simulated intestinal fluids was determined using a Malvern Zetasizer Nano ZSP (Malvern Instruments, Worcestershire, UK) with single‐use disposable microcuvettes. […]

The conditions of series [3]: cited from earlier work.

Turning to `CCOC(=O)C1=C(C)NC(C)=C(C(=O)OC)C1c1cccc(Cl)c1Cl` (stereo not drawn) [Felodipine, felodipine], in series [1], the LogP (commonly the decadic logarithm of the partition coefficient of the neutral form, usually between octanol and water) is given as 5.58; the “Charge (pH 6.5)” value was 0. In addition, in series [2], the solubility (in general, how much of the substance goes into solution per volume) was 49.3 ± 1.9 µg/mL (≈ 128 µM).

Regarding `COc1ccc2c(c1)c(CC(=O)O)c(C)n2C(=O)c1ccc(Cl)cc1` [Indomethacin, indomethacin], in series [1], the LogP is recorded as 3.51 and the “Charge (pH 6.5)” value was −1.

Turning to `C[C@H](CCC(=O)NCCS(=O)(=O)O)[C@H]1CC[C@H]2[C@@H]3[C@H](O)C[C@@H]4C[C@H](O)CC[C@]4(C)[C@H]3C[C@H](O)[C@]12C` [Taurocholic acid, taurocholic acid], the CMC in series [3] was 3 to 8 mM.
